Measurements taken from patent publication US6432924B1, “Method of treating disorders characterized by overexpression of cytidine deaminase or deoxycytidine deaminase” (East Carolina University, priority 1993, dated 2002).

Columns and labels:
HT-29SF^CD cells = test: Transwell culture, 5mAZC exposure of cytidine deaminase overexpressing cells; type: cell-based, human; settings: for Number of viable cells HT-29SF^CD: quintuplicate, Transwell
Description: (§1) HT-29SF^CD cells are a subline of HT-29SF human colonic adenocarcinoma cells that were selected for overexpression of cytidine deaminase. HT-29SF cells were plated in the bottom compartment, and HT-29SF^CD cells in the top compartment of a “Transwell” culture dish (1,000 cells each). A semipermeable membrane separates the two compartments of the Transwell, such that any drug administered in the tissue culture media bathe both compartments equally. 5-mAZC was administered continuously for 72 hrs. at the indicated concentrations. The numbers in the x-axis indicate the concentration (in μM) at which 5mAZC was administered continuously for 72 hours. The numbers on the y-axis indicate the number of surviving cells. The circular (●) data points represent the dose response for the HT-29SF^CD cells. The square (▪) data points represent the dose response for the HT-29SF cells.
HT-29SF human adenocarcinoma cells naturally express a high level of cytidine deaminase (CD). HT-29SF^CD is a subline of the HT-29SF line that express even higher CD levels than normal (about 5.4 times the expression level of HT-29SF cells). In order to see whether cells that overexpress cytidine deaminase are more sensitive to 5mAZC than other cells, HT-29SF^CD cells were plated in the top compartment of a Transwell culture dish, while HT-29SF cells were placed in the bottom compartment (1000 cells each). A semipermeable membrane separated the two compartments of the Transwell, such that drugs administered in the tissue culture media bathe both compartments equally. 5mAZC was administered continuously for 72 hrs at concentrations ranging from 0 μM to 50 μM. The results of this experiment confirm the idea that cells that highly overexpress CD are sensitive to 5mAZC.
Based upon the results obtained in example 1 above, a dose of 50 μM 5mAZC was selected for more in-depth analysis. Two experiments were performed, in quintuplicate, in the same Transwell dishes, containing the HT-29SF cells and the HT-29SF^CD cells in compartments separated only by a membrane permeable to 5mAZC.

HT-29SF cells [1] = test: Transwell culture, 5mAZC exposure of parent cells; type: cell-based, human; settings: quintuplicate
Description: as §1
HT-29SF human adenocarcinoma cells naturally express a high level of cytidine deaminase (CD). HT-29SF^CD is a subline of the HT-29SF line that express even higher CD levels than normal (about 5.4 times the expression level of HT-29SF cells). In order to see whether cells that overexpress cytidine deaminase are more sensitive to 5mAZC than other cells, HT-29SF^CD cells were plated in the top compartment of a Transwell culture dish, while HT-29SF cells were placed in the bottom compartment (1000 cells each). […]

[2] = system: HT-29SF^CD (cytidine deaminase producing)cells; test: Human tumor xenograft model, HT-29SF^CD tumor (right scapular region); type: in vivo, Balb/C nu/nu mice; settings: 150 mg/kg twice daily intraperitoneal, 5 weeks, N=2
Description: (§2) One of these mice received twice daily intraperitoneal doses of 150 mg/kg of 5mAZC. The other mouse received saline only. This treatment continued for 5 weeks, at which time the animals were euthanized and the solid tumors were dissected free and weighed.

[3] = system: HT-29SF (non cytidine deaminase producing)cells; test: Human tumor xenograft model, HT-29SF tumor (left scapular region); type: in vivo, Balb/C nu/nu mice; settings: 150 mg/kg twice daily intraperitoneal, 5 weeks, N=2
Description: as §2

HT-29SF cells [4] = test: HT-29SF subcutaneous xenograft, tumor volume on Day 29; type: in vivo, BALB/c nude mice
Description: In another experiment, thirty BALB/c nude mice received subcutaneous injections of 5×10^6 HT-29SF cells. Twelve of the animals received 600 mg/kg/day 5mAZC in the flank for 28 days. Eighteen animals received saline injections on the same schedule. On Day 29, the animals were sacrificed and the tumor volume was quantified by standard methods. The average tumor volume for the control group receiving saline was 509±292 mm . […] The results of Examples 2 and 3 show clearly that 5mAZC is activated in vitro and in vivo into molecular species exclusively toxic to tumor cells that overexpress cytidine deaminase.

[5] = Experiment 1, 50 μM 5mAZC, 1000 cells plated

`Cc1cn([C@H]2C[C@H](N=[N+]=[N-])[C@@H](CO)O2)c(=O)nc1N` [5mAZC, 5-methyl-2′,3′-dideoxy-3′-azidocytidine] was tested, and the “Number of viable cells HT-29SF^CD” value (HT-29SF^CD cells; [5]) was 33.8 ± 17.1, the “sensitivity of cells that highly overexpress CD to 5mAZC (number of surviving cells, FIG. 1)” value (HT-29SF^CD cells; HT-29SF^CD cells, 0 μM to 50 μM continuously for 72 hrs) was “sensitive” and the “Number of viable cells HT-29SF^CD” value (HT-29SF^CD cells; second experiment (head prints Example 2), 50 μM 5mAZC) was 45.4 ± 15.6. The “Number of viable cells HT-29SF” value (HT-29SF cells [1]; [5]) was 797 ± 68, the “Number of viable cells HT-29SF” value (HT-29SF cells [1]; second experiment, 50 μM 5mAZC) was 867.2 ± 29.4 and the “tumor weight HT-29SF^CD+5mAZC” value [2] was 0.22 g. For the same compound, the “tumor weight HT-29SF+5mAZC” value [3] was 1.02 ± 0.13 g, the “average reduction in size (tumor volume vs saline control)” value (HT-29SF cells [4]; 600 mg/kg/day for 28 days) was 46% and the average tumor volume (HT-29SF cells [4]; 600 mg/kg/day in the flank for 28 days, saline control 509±292) was 273±97 mm^3.
